The assay relates to AcTPS2. Kind of assay: product formation, ethyl acetate extraction, Michaelis-Menten fit. Format: biochemical, Astilbe chinensis. The conditions noted are these: 50 mM Tris-HCl pH 7.5, 1 mM MgCl2, 2 mM DTT, 12.5% glycerol, 0.1% Tween 20, 30 °C, 1 h.

Regarding `CC(C)=CCC/C(C)=C/CC/C(C)=C/COP(=O)(O)OP(=O)(O)O` [FPP, farnesyl diphosphate], the Km (in general, the concentration of substrate that gives half-maximal velocity) is 23.8 µM.

For the origin of these results see article PMC12602695 (Nature Communications, 2025).
